From US20160102058A1, “FLUORO-PERHEXILINE COMPOUNDS AND THEIR THERAPEUTIC USE” (THE UNIVERSITY COURT OF THE UNIVERSITY OF ABERDEEN, priority 2013, published 2016) come the findings set out here.

Data set [1] in a line: Rat liver microsomal (RLM) stability assay. Format: in vitro ADME. Conditions: both sexes, pH 7.4, rat liver microsomes, 3 μM test compound; for microsomal CLint at 3 μM: read-out: CLint (μL/min/mg protein) RLM; for half-life at 3 μM: read-out: T½ (min) RLM. How it is done: The metabolic stability of fluoroperhexiline derivatives was measured by determination of the rate of compound disappearance when incubated in the presence of both human and rat liver microsomes. Liver microsomes are prepared from the endoplasmic reticulum of hepatocytes and are the primary source of the most important enzymes (cytochrome P450) involved in drug metabolism. Study of drug stability in the presence of liver microsomes is accepted as a valuable model permitting rapid prediction of in vivo drug stability.
Human and rat liver microsomes were obtained from a commercial source. Test compounds (3 μM) were incubated with pooled liver microsomes (male and female). Samples were incubated for a 45 minute period and removed at 5 time points and test compounds were analysed by LC-MS/MS.
Microsomes (final protein concentration 0.5 mg/mL), 0.1 M phosphate buffer pH 7.4, and test compound (final concentration 3 μM; diluted from 10 mM stock solution to give a final DMSO concentration of 0.25%) were incubated at 37° C. prior to the addition of NADPH (final concentration 1 mM) to initiate the reaction. The final incubation volume was 25 μL. A control incubation was included for each compound tested, where 0.1 M phosphate buffer pH 7.4 was added instead of NADPH. The control compounds testosterone and 7-hydroxycoumarin were included in each experiment and all incubations were performed singularly for each compound.
Each compound was incubated for 0, 5, 15, 30, and 45 minutes. The control (minus NADPH) was incubated for 45 minutes only. The reactions were stopped by the addition of 50 μL methanol containing internal standard at the appropriate time points. The incubation plates were centrifuged at 2500 rpm for 20 minutes at 4° C. to precipitate the protein.
Following protein precipitation, the sample supernatants were combined in cassettes of up to 4 compounds and analysed using standard LC-MS/MS conditions.
From a plot of the natural logarithm of the peak area ratio (i.e., the ratio of compound peak area:internal standard peak area) against time, the gradient of the line was determined. Subsequently, half-life and intrinsic clearance were calculated using the equations below:
Eliminated Rate Constant (k)=(−Gradient).
Half-Life (t1/2) (min)=0.063/k.
Intrinsic Clearance (CLint) […]=(V×0.693)/t1/2. • wherein V=Incubation Volume (μL/mg microsomal protein).

Another data set deals with T1, CYP2D6 (Homo sapiens, UniProt P10635).
T1 construct: purchased Cypex Ltd; host or cells: bacterial membranes (Bactosomes)
T1 sequence (P10635 whole entry): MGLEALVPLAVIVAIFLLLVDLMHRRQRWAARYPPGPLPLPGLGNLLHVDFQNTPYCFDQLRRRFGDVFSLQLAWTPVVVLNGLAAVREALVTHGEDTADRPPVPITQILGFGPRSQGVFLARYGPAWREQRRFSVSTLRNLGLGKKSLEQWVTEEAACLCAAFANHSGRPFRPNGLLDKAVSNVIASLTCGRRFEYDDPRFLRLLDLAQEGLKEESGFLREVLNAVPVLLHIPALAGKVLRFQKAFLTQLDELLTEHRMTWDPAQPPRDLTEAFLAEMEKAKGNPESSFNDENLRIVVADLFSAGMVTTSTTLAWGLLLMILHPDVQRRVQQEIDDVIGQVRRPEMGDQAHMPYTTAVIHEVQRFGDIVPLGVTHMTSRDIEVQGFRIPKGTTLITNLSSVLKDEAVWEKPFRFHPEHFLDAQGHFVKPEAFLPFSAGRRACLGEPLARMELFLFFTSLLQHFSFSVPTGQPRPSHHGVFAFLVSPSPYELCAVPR
Briefly: Cytochrome P450 2D6 reaction phenotyping (Bactosomes). The class given is in vitro ADME. Conditions: for stability towards CYP2D6 compared with perhexiline (in words): versus perhexiline; for half-life at 5 μM: human, pH 7.4, read-out: T½. How it is done:
The stability of fluoroperhexiline derivatives towards CYP2D6-mediated metabolism was measured by determination of the rate of compound disappearance when incubated in the presence CYP2D6 recombinant isoform expression systems (Bactosomes™). The percentage of parent compound remaining at each time point (following correction for any loss in the incubations with the control bactosomes) is calculated. cDNA expressed human CYP450 enzyme preparations co-expressed with human NADPH cytochrome P450 reductase (Bactosomes™) are supplied by Cypex Ltd. Bactosomes™ are stored at −80° C. prior to use. […] Incubations are also performed using control bactosomes (no P450 enzymes present) to reveal any non-enzymatic degradation. The final incubation volume is 25 μL. A compound known to be metabolised specifically by CYP2D6 isoform is used as a control compound. Each compound is incubated singly for 0, 5, 15, 30 and 45 min with each isoform. The reactions are stopped by the addition of 50 μL methanol containing internal standard at the appropriate time points. The incubation plates are centrifuged at 2500 rpm for 20 min at 4° C. to precipitate the protein. Following protein precipitation, the sample supernatants are combined in cassettes of up to four compounds and analysed using Cyprotex generic LC-MS/MS conditions. The natural logarithm of the peak area ratio (which has been corrected for any loss in the incubations with the control bactosomes) is plotted against time and the gradient of the line determined. Elimination Rate Constant (k)=(−Gradient).

Where [2] appears, read: recombinant CYP2D6 Bactosomes, 5 μM test compound.

As for `FC1(F)CCC(C(CC2CCCCN2)C2CCCCC2)CC1` (mixture of isomers) [FPER-001, 2-(2-Cyclohexyl-2-(4,4-difluorocyclohexyl)ethyl)piperidine], in data set [1], the microsomal CLint at 3 μM came to 19 µL/min/mg and the half-life at 3 μM stood at 72 min. Besides, the “T½” value on CYP2D6 (setting [2]) amounted to 104 min. Also, at CYP2D6, the “stability towards CYP2D6 compared with perhexiline (in words)” value is recorded as “substantial increase in stability towards CYP2D6”.

Turning to `FC1CCC(C(CC2CCCCN2)C2CCCCC2)CC1` (mixture of isomers) [FPER-003, 2-(2-Cyclohexyl-2-(4-fluorocyclohexyl)ethyl)piperidine], in data set [1], the microsomal CLint at 3 μM turned out to be 129 µL/min/mg and the half-life at 3 μM is 11 min. The half-life at 5 μM on CYP2D6 (setting [2]) came to 16 min. Moreover, at CYP2D6, the “stability towards CYP2D6 compared with perhexiline (in words)” value is listed as “no increase in stability”.

Consider `C1CCC(C(CC2CCCCN2)C2CCCCC2)CC1` (centres unmarked) [Perhexiline, 2-(2,2-dicyclohexylethyl)piperidine], for which, in data set [1], the microsomal CLint at 3 μM stood at 65 µL/min/mg and the half-life at 3 μM was determined as 21 min. The half-life at 5 μM at CYP2D6 (setting [2]) is 14 min.
